Assay results: ChEMBL document CHEMBL1649532, “Trypanocidal activity of 8-methyl-5'-{[(Z)-4-aminobut-2-enyl]-(methylamino)}adenosine (Genz-644131), an adenosylmethionine decarboxylase inhibitor” (Antimicrob Agents Chemother, 2009)
≈ marks a conversion by molar mass, not a printed value. Calls of active or inactive are those of the source. The calls are words filed in the database; no cut-off is given here.

How the values were obtained:
[1] = test system: Trypanosoma brucei brucei; assay: Trypanocidal activity against Trypanosoma brucei brucei 667 infected in mouse assessed as average day of relapse of trypanosomal infection at 50 mg/kg, ip BID for 14 days; type: functional; conditions: route intraperitoneal
[2] = test system: Trypanosoma brucei rhodesiense; assay: Trypanocidal activity against Trypanosoma brucei rhodesiense KETRI1992 infected in mouse assessed as average survival time at 50 mg/kg, ip QD administered 24 hrs postinfection; type: functional; conditions: route intraperitoneal
[3] = test system: Trypanosoma brucei rhodesiense; assay: Trypanocidal activity against Trypanosoma brucei rhodesiense KETRI243 infected in mouse assessed as protection against trypanosomal infection at 50 mg/kg, ip QD administered 24 hrs postinfection; type: functional, organism-based; parameters: dose 50 mg/kg
[4] = test system: Trypanosoma brucei rhodesiense; assay: Trypanocidal activity against Trypanosoma brucei rhodesiense KETRI1992 infected in mouse assessed as cure rate at 25 mg/kg, ip BID administered 24 hrs postinfection; type: functional; conditions: route intraperitoneal
[5] = test system: Trypanosoma brucei brucei; assay: Trypanocidal activity against Trypanosoma brucei brucei EATRO infected in mouse assessed as mean survival time at 2.5 mg/kg, ip QD for 4 days; type: functional; conditions: route intraperitoneal
[6] = test system: Trypanosoma brucei rhodesiense; assay: Trypanocidal activity against Trypanosoma brucei rhodesiense KETRI2002 infected in mouse assessed as average survival time at 25 mg/kg, ip QD administered 24 hrs postinfection; type: functional; conditions: route intraperitoneal
[7] = test system: Trypanosoma brucei rhodesiense; assay: Trypanocidal activity against Trypanosoma brucei rhodesiense KETRI2002 infected in mouse assessed as average survival time at 10 mg/kg, ip QD administered 24 hrs postinfection; type: functional; conditions: route intraperitoneal
[8] = test system: Trypanosoma brucei brucei; assay: Trypanocidal activity against Trypanosoma brucei brucei EATRO infected in mouse assessed as protection against trypanosomal infection at 2 mg/kg, ip BID for 4 days; type: functional, organism-based; parameters: dose 2 mg/kg
[9] = test system: Trypanosoma brucei rhodesiense; assay: Trypanocidal activity against Trypanosoma brucei rhodesiense KETRI243 infected in mouse assessed as protection against trypanosomal infection at 10 mg/kg, ip BID administered 24 hrs postinfection; type: functional, organism-based; parameters: dose 10 mg/kg
[10] = test system: Trypanosoma brucei rhodesiense; assay: Trypanocidal activity against Trypanosoma brucei rhodesiense KETRI2538 after 48 hrs; type: functional, organism-based; conditions: KETRI2538, 48 h
[11] = test system: Trypanosoma brucei brucei; assay: Trypanocidal activity against Trypanosoma brucei brucei EATRO infected in mouse assessed as mean survival time at 25 mg/kg, ip BID for 4 days; type: functional; conditions: route intraperitoneal
[12] = test system: Trypanosoma brucei brucei; assay: Trypanocidal activity against Trypanosoma brucei brucei EATRO infected in mouse assessed as protection against trypanosomal infection at 10 mg/kg, ip QD for 4 days; type: functional, organism-based; parameters: dose 10 mg/kg
[13] = test system: Trypanosoma brucei brucei; assay: Trypanocidal activity against Trypanosoma brucei brucei EATRO infected in mouse assessed as protection against trypanosomal infection at 5 mg/kg, ip QD for 4 days; type: functional, organism-based; parameters: dose 5 mg/kg
[14] = test system: Trypanosoma brucei rhodesiense; assay: Trypanocidal activity against Trypanosoma brucei rhodesiense KETRI2002 infected in mouse assessed as average survival time at 50 mg/kg, ip BID administered 24 hrs postinfection; type: functional; conditions: route intraperitoneal
[15] = test system: Trypanosoma brucei rhodesiense; assay: Trypanocidal activity against Trypanosoma brucei rhodesiense KETRI1992 infected in mouse assessed as protection against trypanosomal infection at 10 mg/kg, ip BID administered 24 hrs postinfection; type: functional, organism-based; parameters: dose 10 mg/kg
[16] = test system: Trypanosoma brucei brucei; assay: Trypanocidal activity against Trypanosoma brucei brucei EATRO infected in mouse assessed as protection against trypanosomal infection at 25 mg/kg, ip QD for 4 days; type: functional, organism-based; parameters: dose 25 mg/kg
[17] = test system: Trypanosoma brucei brucei; assay: Trypanocidal activity against Trypanosoma brucei brucei EATRO infected in mouse assessed as protection against trypanosomal infection at 25 mg/kg, ip BID for 4 days; type: functional, organism-based; parameters: dose 25 mg/kg
[18] = test system: Trypanosoma brucei brucei; assay: Trypanocidal activity against Trypanosoma brucei brucei EATRO infected in mouse assessed as mean survival time at 2.5 mg/kg, ip BID for 4 days; type: functional; conditions: route intraperitoneal
[19] = test system: Trypanosoma brucei rhodesiense; assay: Ratio of Kinact to Kiapp for Trypanosoma brucei rhodesiense AdoMetDC
[20] = test system: Trypanosoma brucei rhodesiense; assay: Trypanocidal activity against Trypanosoma brucei rhodesiense KETRI1992 infected in mouse assessed as average survival time at 10 mg/kg, ip QD administered 24 hrs postinfection; type: functional; conditions: route intraperitoneal
[21] = test system: Trypanosoma brucei rhodesiense; assay: Trypanocidal activity against Trypanosoma brucei rhodesiense KETRI243 infected in mouse assessed as average survival time at 10 mg/kg, ip BID administered 24 hrs postinfection; type: functional; conditions: route intraperitoneal
[22] = test system: Trypanosoma brucei rhodesiense; assay: Trypanocidal activity against Trypanosoma brucei rhodesiense KETRI243 infected in mouse assessed as average survival time at 25 mg/kg, ip BID administered 24 hrs postinfection; type: functional; conditions: route intraperitoneal
[23] = test system: Trypanosoma brucei rhodesiense; assay: Trypanocidal activity against Trypanosoma brucei rhodesiense KETRI1992 infected in mouse assessed as average survival time at 10 mg/kg, ip BID administered 24 hrs postinfection; type: functional; conditions: route intraperitoneal
[24] = test system: Trypanosoma brucei rhodesiense; assay: Trypanocidal activity against Trypanosoma brucei rhodesiense KETRI243 infected in mouse assessed as protection against trypanosomal infection at 10 mg/kg, ip QD administered 24 hrs postinfection; type: functional, organism-based; parameters: dose 10 mg/kg
[25] = test system: Trypanosoma brucei brucei; assay: Trypanocidal activity against Trypanosoma brucei brucei 667 infected in mouse assessed as average day of relapse of trypanosomal infection at 10 mg/kg, ip BID for 14 days; type: functional; conditions: route intraperitoneal
[26] = test system: Trypanosoma brucei rhodesiense; assay: Trypanocidal activity against Trypanosoma brucei rhodesiense KETRI2002 infected in mouse assessed as average survival time at 10 mg/kg, ip BID administered 24 hrs postinfection; type: functional; conditions: route intraperitoneal
[27] = test system: Trypanosoma brucei brucei; assay: Trypanocidal activity against Trypanosoma brucei brucei 667 infected in mouse assessed as average day of relapse of trypanosomal infection at 25 mg/kg, ip BID for 7 days; type: functional; conditions: route intraperitoneal
[28] = test system: Trypanosoma brucei brucei; assay: Trypanocidal activity against Trypanosoma brucei brucei EATRO infected in mouse assessed as mean survival time at 50 mg/kg, ip QD for 4 days; type: functional; conditions: route intraperitoneal
[29] = test system: Trypanosoma brucei rhodesiense; assay: Trypanocidal activity against Trypanosoma brucei rhodesiense KETRI1992 infected in mouse assessed as protection against trypanosomal infection at 25 mg/kg, ip QD administered 24 hrs postinfection; type: functional, organism-based; parameters: dose 25 mg/kg
[30] = test system: Trypanosoma brucei rhodesiense; assay: Trypanocidal activity against Trypanosoma brucei rhodesiense KETRI1992 infected in mouse assessed as protection against trypanosomal infection at 50 mg/kg, ip BID administered 24 hrs postinfection; type: functional, organism-based; parameters: dose 50 mg/kg
[31] = test system: Trypanosoma brucei brucei; assay: Trypanocidal activity against Trypanosoma brucei brucei EATRO infected in mouse assessed as mean survival time at 10 mg/kg, ip QD for 4 days; type: functional; conditions: route intraperitoneal
[32] = test system: Trypanosoma brucei rhodesiense; assay: Trypanocidal activity against Trypanosoma brucei rhodesiense KETRI2002 infected in mouse assessed as cure rate at 10 mg/kg, ip BID administered 24 hrs postinfection; type: functional; conditions: route intraperitoneal
[33] = test system: Trypanosoma brucei rhodesiense; assay: Trypanocidal activity against Trypanosoma brucei rhodesiense KETRI1992 infected in mouse assessed as average survival time at 25 mg/kg, ip BID administered 24 hrs postinfection; type: functional; conditions: route intraperitoneal
[34] = test system: Trypanosoma brucei brucei; assay: Trypanocidal activity against Trypanosoma brucei brucei 667 infected in mouse assessed as average day of relapse of trypanosomal infection at 50 mg/kg, ip BID for 7 days; type: functional; conditions: route intraperitoneal
[35] = test system: Trypanosoma brucei rhodesiense; assay: Trypanocidal activity against Trypanosoma brucei rhodesiense KETRI1992 infected in mouse assessed as cure rate at 50 mg/kg, ip BID administered 24 hrs postinfection; type: functional; conditions: route intraperitoneal
[36] = test system: Trypanosoma brucei rhodesiense; assay: Trypanocidal activity against Trypanosoma brucei rhodesiense KETRI243 infected in mouse assessed as average survival time at 25 mg/kg, ip QD administered 24 hrs postinfection; type: functional; conditions: route intraperitoneal
[37] = test system: Trypanosoma brucei brucei; assay: Trypanocidal activity against Trypanosoma brucei brucei EATRO infected in mouse assessed as protection against trypanosomal infection at 2.5 mg/kg, ip BID for 4 days; type: functional, organism-based; parameters: dose 2.5 mg/kg
[38] = test system: Trypanosoma brucei brucei; assay: Trypanocidal activity against Trypanosoma brucei brucei EATRO infected in mouse assessed as mean survival time at 25 mg/kg, ip QD for 4 days; type: functional; conditions: route intraperitoneal
[39] = test system: Trypanosoma brucei rhodesiense; assay: Trypanocidal activity against Trypanosoma brucei rhodesiense KETRI1992 infected in mouse assessed as protection against trypanosomal infection at 10 mg/kg, ip QD administered 24 hrs postinfection; type: functional, organism-based; parameters: dose 10 mg/kg

In the case of `Cc1nc2c(N)ncnc2n1[C@@H]1O[C@H](CN(C)C/C=C\CN)[C@@H](O)[C@H]1O`, the MST [1] is reported as 63.4 days, the MST [2] is reported as 20.2 days and the Activity [3] is reported as “inactive”. For the same compound, the Activity [4] was 60%, the MST [5] was 21 days and the MST [6] was 20 days. For the same compound, the MST [7] was 16 days, the Activity [8] was “Active” and the Activity [9] was “inactive”. For the same compound, the IC50 [10] was 0.3 ng/mL (≈ 0.825 nM), the MST [11] was >35 days and the Activity [12] was “Active”. For the same compound, the Activity [13] was “Active”, the MST [14] was 22 days and the Activity [15] was “inactive”. The Activity [16] was “Active”, the Activity [17] was “Active” and the MST [18] was >35 days. The Activity [19] was 7.8 min⁻¹ M⁻¹, the MST [20] was 16.6 days and the MST [21] was 14.8 days. For the same compound, the MST [22] was 18.75 days, the MST [23] was 20.4 days and the Activity [24] was “inactive”. The MST [25] was 59.8 days, the MST [26] was 21.5 days and the MST [27] was 61.7 days. The MST [28] was >35 days, the Activity [29] was “inactive” and the Activity [30] was “inactive”. The MST [31] was >35 days, the Activity [32] was 60% and the MST [33] was 23 days. For the same compound, the MST [34] was 59 days, the Activity [35] was 100% and the MST [36] was 14 days. For the same compound, the Activity [37] was “Active”, the MST [38] was >35 days and the Activity [39] was “inactive”.
